Assay results taken from patent US12325744B2, “Methods for reducing post-operative cognitive dysfunction (POCD)” (The Kennedy Trust for Rheumatology Research, priority 2010, dated 2025).
“Also recorded” adds a separate entry of the source.

Key:
[1] = tested on: C57-BL6 mice; test: Fear conditioning, freezing to context after tibial surgery; assay type: in vivo; settings: wild type mice, surgery 30 min after training, tested three days later
Procedure: Fear conditioning tests. Mice were conditioned 30 minutes or 3 days prior to intervention by training with two cycles of tone and foot-shock pairings. In delay fear conditioning a foot-shock was administered during the last 2 seconds of each 20 seconds-lasting tone.
In trace fear conditioning, the foot-shock onset, lasting 2 seconds as in the previous paradigm, followed a 20-second gap after each tone termination. Three days after conditioning, mice were placed back in the original conditioning chamber for 270 seconds, where no tone or shock were presented, to assess recall of contextual fear memory. After 3 h mice were placed in a novel environment (different context from training) to test for auditory-cued memory. Following an initial baseline period of 135 seconds during which freezing was scored in absence of noise, the auditory cue was presented for the final 135 seconds of the test, and freezing was again recorded. (For further details please refer to supplemental methods).
The behavioral study was conducted using a conditioning chamber (Med. Associates Inc., St. Albans, VT, USA). The back- and the side-walls of the chamber were made of aluminium, whereas the front door and the ceiling were of transparent Plexiglas. The floor of the chamber consisted of 36 stainless steel rods (1 mm diameter) spaced 0.5 cm apart (center-to-center). […]

[2] = tested on: microglia; test: Hippocampal microglia anti-CD11b immunohistochemistry grading (0-3) after tibial surgery; assay type: in vivo; settings: wild type mice, 1 day after surgery
Text: Immunohistochemistry. Fixed brains were collected for immunohistochemical DAB staining for CD11 b and scored as previously described^21. (For further details please refer to supplemental methods).
Under terminal anesthesia with pentobarbital, mice were euthanized and perfused transcardially with ice-cold heparinized 0.1M phosphate buffer solution (PBS) followed by 4% paraformaldehyde in 0.1M PBS at pH 7.4 (VWR International, Lutterworth, Leicester, UK). The brains were harvested and post-fixed in 4% paraformaldehyde in 0.1M PBS at 4° C. and cryoprotected in 0.1M PBS solutions containing 15% sucrose for 24 hours (VWR International, Lutterworth, Leicester, UK) and then 30% sucrose for a further 48 hours. […]
Immunohistochemistry: Fixed brains were collected for immunohistochemical DAB staining for microglia activation using CD11 b and scored as previously described (13).
Methods: Adult C56BL/6J male mice were randomly assigned into groups that were: 1) untreated (naïve) animals; 2) tibial fracture under GA and analgesia; 3) 24 h following tibial surgery, i.p. injection of LPS (1 mg/kg) 4) LPS injection only. Separate cohorts of mice per group were assessed for inflammatory markers (plasma cytokines and microglial activation), or hippocampal-dependent memory using trace fear conditioning (TFC).

For “IL-1Ra: IL-1 receptor antagonist (Amgen, Anakinra)”, the “Freezing to context (delay fear conditioning) after surgery, effect of treatment” value [1] was “prevented the decrement in postoperative freezing behavior; also recorded: significantly reduced the surgery-induced decrement in freezing behavior” and the “Reactive microgliosis in hippocampus (CD11b grading) after surgery, effect of treatment” value [2] was “surgery did not increase hippocampal microgliosis; also recorded: surgery did not activate microglia if IL-1Ra was given pre-operatively”.
